Experimental data from patent US12054494B2, “Compound with anticancer activity” (KYOWA KIRIN CO., LTD., priority 2018, dated 2024).

Tested on: SU-DHL-4 cells
Experiment: Inhibitory effect on cell viability (Cell Counting Kit-8)
Format: cell-based
Conditions: Homo sapiens, 72 hours culture with test compound, concentration showing 90% inhibition rate of cell viability
Procedure, shortened: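 IC90 corresponds to 90% loss of viability, measured as CCK-8 absorbance at 450 nm (2-3 h colour development). Compounds in 9 dilutions (0.1% DMSO) were applied for 72 h at 37° C to SU-DHL-4 lymphoma cells seeded at 2000/well in RPMI1640/10% FBS after 18-25 h preculture.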

First: CCC(=O)N1c2ccccc2[C@H](Nc2ccc(NC(=O)CNC(=O)C=C3CCC(N[C@@H]4C[C@H](C)N(C(=O)CC)c5ccccc54)CC3)cc2)C[C@@H]1C (relative stereo) [Compound 15j, 2-(4-(((2S*,4R*)-2-Methyl-1-propionyl-1,2,3,4-tetrahydroquinolin-4-yl)amino)cyclohexylidene)-N-(2-((4-(((2S,4R)-2-methyl-1-propionyl-1,2,3,4-tetrahydroquinolin-4-yl)amino)phenyl)amino)-2-oxoethyl)acetamide]
Second: CCC(=O)N1c2ccccc2[C@H](Nc2ccc(CCCC(=O)Nc3ccc(N[C@@H]4C[C@H](C)N(C(=O)CC)c5ccccc54)cc3)cc2)C[C@@H]1C [Compound 5r, N,4-Bis(4-(((2S,4R)-2-methyl-1-propionyl-1,2,3,4-tetrahydroquinolin-4-yl)amino)phenyl)butanamide]
The IC90 of the first is 3.4-fold lower: 0.52 nM for the first, 1.78 nM for the second.

`CCC(=O)N1c2ccccc2[C@H](Nc2ccc(C(=O)NCCC(=O)Nc3ccc(C4=NCc5nnc(C)n5-c5sc(C)c(C)c54)cc3)cc2)C[C@@H]1C` [Compound 14m, 4-(((2S,4R)-2-Methyl-1-propionyl-1,2,3,4-tetrahydroquinolin-4-yl)amino)-N-(3-oxo-3-((4-(2,3,9-trimethyl-6H-thieno[3,2-f][1,2,4]triazolo[4,3-a][1,4]diazepin-4-yl)phenyl)amino)propyl)benzamide] and `CCC(=O)N1c2ccccc2[C@H](Nc2ccc(-c3cn4c(n3)CN(C(=O)c3ccc(C5=NCc6nnc(C)n6-c6sc(C)c(C)c65)cc3)CC4)cc2)C[C@@H]1C` [Compound 14r, 1-((2S,4R)-2-Methyl-4-((4-(7-(4-(2,3,9-trimethyl-6H-thieno[3,2-f][1,2,4]triazolo[4,3-a][1,4]diazepin-4-yl)benzoyl)-5,6,7,8-tetrahydroimidazo[1,2-a]pyrazin-2-yl)phenyl)amino)-3,4-dihydroquinolin-1(2H)-yl)propan-1-one] are within 1.5-fold of each other in IC90: 1.45 nM for the first, 1.47 nM for the second.

Going from `CCC(=O)N1c2ccccc2[C@H](Nc2ccc(NC(=O)CC[S+]([O-])c3ccc(N[C@@H]4C[C@H](C)N(C(=O)CC)c5ccccc54)cc3)cc2)C[C@@H]1C` (stereo partly drawn) [Compound 5m, N-(4-(((2S,4R)-2-Methyl-1-propionyl-1,2,3,4-tetrahydroquinolin-4-yl)amino)phenyl)-3-((4-(((2S,4R)-2-methyl-1-propionyl-1,2,3,4-tetrahydroquinolin-4-yl)amino)phenyl)sulfinyl)propanamide] to `CCC(=O)N1c2ccccc2[C@H](Nc2ccc(C(=O)NCc3cn(-c4ccc(Cn5c(CC)cc6c5CCCC6=O)cc4)nn3)cc2)C[C@@H]1C` [Compound 15h, N-((1-(4-((2-Ethyl-4-oxo-4,5,6,7-tetrahydro-1H-indol-1-yl)methyl)phenyl)-1H-1,2,3-triazol-4-yl)methyl)-4-(((2S,4R)-2-methyl-1-propionyl-1,2,3,4-tetrahydroquinolin-4-yl)amino)benzamide], the IC90 rises from 0.59 nM to 2.32 nM (3.9-fold).

Compared with `CCC(=O)N1c2ccccc2[C@H](Nc2ccc(-n3cc(CCNC(=O)c4ccc(Cn5c(C(=O)OCCN(C)C)cc6c5CCCC6=O)cc4)nn3)cc2)C[C@@H]1C` [Compound 15c, 2-(Dimethylamino)ethyl 1-(4-((2-(1-(4-(((2S,4R)-2-methyl-1-propionyl-1,2,3,4-tetrahydroquinolin-4-yl)amino)phenyl)-1H-1,2,3-triazol-4-yl)ethyl)carbamoyl)benzyl)-4-oxo-4,5,6,7-tetrahydro-1H-indole-2-carboxylate], `CCC(=O)N1c2ccccc2[C@H](Nc2ccc(-n3cc(CNC(=O)c4ccc(Cn5c(CC)cc6c5CCCC6=O)cc4)nn3)cc2)C[C@@H]1C` [Compound 15f, 4-((2-Ethyl-4-oxo-4,5,6,7-tetrahydro-1H-indol-1-yl)methyl)-N-((1-(4-(((2S,4R)-2-methyl-1-propionyl-1,2,3,4-tetrahydroquinolin-4-yl)amino)phenyl)-1H-1,2,3-triazol-4-yl)methyl)benzamide] is 7.5-fold lower in IC90: 0.3 nM for the first, 0.04 nM for the second.
